What was measured:
Assay type in all cases: cell-based
[1] = target: human TLR7 (Homo sapiens (Human), UniProt Q9NYK1); assay: Human TLR7 assay (SEAP reporter in HEK293); conditions: SEAP induction, overnight incubation at 37° C., 0.1% DMSO; read-out: TLR7 (pEC50) (converted)
Text: Recombinant human TLR7 was stably expressed in a HEK293 cell line already stably expressing the pNiFty2-SEAP reporter plasmid; integration of the reporter gene was maintained by selection with the antibiotic zeocin. The most common variant sequence of human TLR7 (represented by the EMBL sequence AF240467) was cloned into the mammalian cell expression vector pUNO and transfected into this reporter cell-line. Transfectants with stable expression were selected using the antibiotic blasticidin. In this reporter cell-line, expression of secreted alkaline phosphatase (SEAP) is controlled by an NFkB/ELAM-1 composite promoter comprising five NFkB sites combined with the proximal ELAM-1 promoter. TLR signaling leads to the translocation of NFkB and activation of the promoter results in expression of the SEAP gene. TLR7-specific activation was assessed by determining the level of SEAP produced following overnight incubation of the cells at 37° C. with the standard compound in the presence of 0.1% (v/v) dimethylsulfoxide (DMSO). Concentration dependent induction of SEAP production by compounds was expressed as the concentration of compound which produced half of the maximal level of SEAP induction for that compound (EC50).

[2] = target: human TLR8 (Homo sapiens (Human), UniProt Q9NR97); assay: Human TLR8 assay (TLR8/NF-kB/SEAPorter HEK 293 Cell Line); conditions: SEAP induction, overnight incubation at 37° C., 0.1% DMSO; read-out: TLR8 pEC50 (converted)
Text: TLR8/NF-kB/SEAPorter™ HEK 293 Cell Line (Imgenex Corporation) is a stably co-transfected cell line which expresses full-length human TLR8 and the secreted alkaline phosphatase (SEAP) reporter gene under the transcriptional control of an NF-κB response element. TLR8 expression in this cell line has been tested by flow cytometry. Transfectants with stable expression were selected using the antibiotic blasticidin and geneticin. TLR signaling leads to the translocation of NF-κB and activation of the promoter results in expression of the SEAP gene. TLR8-specific activation was assessed by determining the level of SEAP produced following overnight incubation of the cells at 37° C. with the standard compound in the presence of 0.1% (v/v) dimethylsulfoxide (DMSO). Concentration dependent induction of SEAP production by compounds was expressed as the concentration of compound which produced half of the maximal level of SEAP induction for that compound (EC50).

[3] = target: hERG potassium channel (Homo sapiens (Human), UniProt Q12809); assay: hERG Analysis - Method 2 (QPATCH HT, CHO-hERG cells); conditions: half-maximal inhibition concentration, 22±2° C.
Method: The hERG potassium current was measured in a hERG-stably-expressing Chinese hamster ovary K1 (CHO) cells. The experiments were performed using an automated planar patch-clamp system QPATCH HT (Sophion Bioscience A/S). The application of pressure for forming gigaseals and whole-cell patch clamp configuration were established using the QPATCH assay software. Patch-clamp experiments were performed in voltage-clamp mode and whole-cell currents were recorded from individual cells. The following stimulation protocol was applied to investigate the effects of compounds on hERG potassium channel: The membrane potential was held at −80 mV and repetitively (every 15 s) depolarized to +20 mV for 5 s after the pulse to −50 mV for 20 ms served to define the baseline, followed by repolarizing step to −50 mV for 5 s to evaluate of the tail current amplitude. Experiments were conducted at room temperature (22±2° C.).
Effects of compounds were determined from cumulative applications of increasing 4 concentrations and calculated as percent of blocked current. The data points were fitted with Hill equation to calculate half-maximal inhibition concentrations. The test solution includes: Extracellular solution (mM): 2 mM of CaCl2, 1 mM of MgCl2, 10 mM of HEPES, 4 mM of KCl, 145 mM of NaCl, and 10 mM of Glucose; and Intracellular solution (mM): 5.4 mM of CaCl2, 1.8 mM of MgCl2, 10 mM of HEPES, 31 mM of KOH, 10 mM of EGTA, 120 mM of KCl, and 4 mM of ATP.

[4] = target: hERG ion channel (Homo sapiens (Human), UniProt Q12809); assay: hERG Analysis - Method 1 (IONWORKS HT, CHO-hERG cells); conditions: ~21° C.
Method: The hERG-expressing Chinese hamster ovary K1 (CHO) cells described by (Persson, Carlsson, Duker, & Jacobson, 2005) were grown to semi-confluence at 37° C. in a humidified environment (5% CO2) in F-12 Ham medium containing L-glutamine, 10% foetal calf serum (FCS) and 0.6 mg/mL hygromycin (all available from Sigma-Aldrich). Prior to use, the monolayer was washed using a pre-warmed (37° C.) 3 mL aliquot of Versene 1:5,000 (Invitrogen) After aspiration of this solution the flask was incubated at 37° C. in an incubator with a further 2 mL of Versene 1:5,000 for a period of 6 minutes. Cells were then detached from the bottom of the flask by gentle tapping and 10 mL of Dulbecco's Phosphate-Buffered Saline containing calcium (0.9 mM) and magnesium (0.5 mM) (PBS; Invitrogen) was then added to the flask and aspirated into a 15 mL centrifuge tube prior to centrifugation (50 g, for 4 mins). The resulting supernatant was discarded and the pellet gently re-suspended in 3 mL of PBS. A 0.5 mL aliquot of cell suspension was removed and the number of viable cells (based on trypan blue exclusion) was determined in an automated reader (Cedex; Innovatis) so that the cell re-suspension volume can be adjusted with PBS to give the desired final cell concentration. It is the cell concentration at this point in the assay that is quoted when referring to this parameter. CHO-Kv1.5 cells, which were used to adjust the voltage offset on IONWORKS™ HT, were maintained and prepared for use in the same way.
The principles and operation of this device have been described by (Schroeder, Neagle, Trezise, & Worley, 2003). Briefly, the technology is based on a 384-well plate (PATCHPLATE™) in which a recording was attempted in each well by using suction to position and hold a cell on a small hole separating two isolated fluid chambers. Once sealing had taken place, the solution on the underside of the PATCHPLATE™ was changed to one containing amphotericin B. This permeablises the patch of cell membrane covering the hole in each well and, in effect, allowed a perforated, whole-cell patch clamp recording to be made.
A β-test IONWORKS™ HT from Essen Instrument was used. […] (˜21° C.), as follows. The reservoir in the “Buffer” position was loaded with 4 mL of PBS and that in the “Cells” position with the CHO-hERG cell suspension described above. A 96-well plate (V-bottom, Greiner Bio-one) containing the compounds to be tested (at 3-fold above their final test concentration) was placed in the “Plate 1” position and a PATCHPLATE™ was clamped into the PATCHPLATE™ station. […]

Chain of human TLR7 (Q9NYK1 27-1049): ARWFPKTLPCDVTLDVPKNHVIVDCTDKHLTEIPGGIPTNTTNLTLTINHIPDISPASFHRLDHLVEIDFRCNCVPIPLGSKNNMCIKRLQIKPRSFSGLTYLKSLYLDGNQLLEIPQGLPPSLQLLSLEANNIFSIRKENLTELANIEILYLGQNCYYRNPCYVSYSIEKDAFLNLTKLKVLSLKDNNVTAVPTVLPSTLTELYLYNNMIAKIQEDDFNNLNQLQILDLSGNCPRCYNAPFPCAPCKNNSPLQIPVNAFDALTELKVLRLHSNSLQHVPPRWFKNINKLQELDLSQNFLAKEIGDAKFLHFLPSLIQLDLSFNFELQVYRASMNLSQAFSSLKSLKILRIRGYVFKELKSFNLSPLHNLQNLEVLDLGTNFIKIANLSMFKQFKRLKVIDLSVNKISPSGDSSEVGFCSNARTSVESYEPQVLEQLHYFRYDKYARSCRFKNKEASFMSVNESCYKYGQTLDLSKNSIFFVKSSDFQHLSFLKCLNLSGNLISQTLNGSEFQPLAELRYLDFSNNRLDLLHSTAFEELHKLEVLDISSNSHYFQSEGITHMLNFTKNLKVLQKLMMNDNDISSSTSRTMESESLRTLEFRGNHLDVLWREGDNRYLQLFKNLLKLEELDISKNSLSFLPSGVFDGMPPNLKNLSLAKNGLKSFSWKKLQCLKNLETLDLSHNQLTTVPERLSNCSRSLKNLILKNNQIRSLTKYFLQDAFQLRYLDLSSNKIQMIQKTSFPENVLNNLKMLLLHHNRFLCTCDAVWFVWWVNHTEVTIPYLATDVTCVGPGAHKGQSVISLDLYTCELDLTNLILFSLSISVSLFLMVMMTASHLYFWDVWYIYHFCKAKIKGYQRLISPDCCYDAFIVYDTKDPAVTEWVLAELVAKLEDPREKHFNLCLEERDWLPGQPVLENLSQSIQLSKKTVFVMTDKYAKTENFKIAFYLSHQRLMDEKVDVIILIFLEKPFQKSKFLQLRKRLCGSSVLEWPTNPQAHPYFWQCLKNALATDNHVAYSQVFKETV
Chain of human TLR8 (Q9NR97 27-1041): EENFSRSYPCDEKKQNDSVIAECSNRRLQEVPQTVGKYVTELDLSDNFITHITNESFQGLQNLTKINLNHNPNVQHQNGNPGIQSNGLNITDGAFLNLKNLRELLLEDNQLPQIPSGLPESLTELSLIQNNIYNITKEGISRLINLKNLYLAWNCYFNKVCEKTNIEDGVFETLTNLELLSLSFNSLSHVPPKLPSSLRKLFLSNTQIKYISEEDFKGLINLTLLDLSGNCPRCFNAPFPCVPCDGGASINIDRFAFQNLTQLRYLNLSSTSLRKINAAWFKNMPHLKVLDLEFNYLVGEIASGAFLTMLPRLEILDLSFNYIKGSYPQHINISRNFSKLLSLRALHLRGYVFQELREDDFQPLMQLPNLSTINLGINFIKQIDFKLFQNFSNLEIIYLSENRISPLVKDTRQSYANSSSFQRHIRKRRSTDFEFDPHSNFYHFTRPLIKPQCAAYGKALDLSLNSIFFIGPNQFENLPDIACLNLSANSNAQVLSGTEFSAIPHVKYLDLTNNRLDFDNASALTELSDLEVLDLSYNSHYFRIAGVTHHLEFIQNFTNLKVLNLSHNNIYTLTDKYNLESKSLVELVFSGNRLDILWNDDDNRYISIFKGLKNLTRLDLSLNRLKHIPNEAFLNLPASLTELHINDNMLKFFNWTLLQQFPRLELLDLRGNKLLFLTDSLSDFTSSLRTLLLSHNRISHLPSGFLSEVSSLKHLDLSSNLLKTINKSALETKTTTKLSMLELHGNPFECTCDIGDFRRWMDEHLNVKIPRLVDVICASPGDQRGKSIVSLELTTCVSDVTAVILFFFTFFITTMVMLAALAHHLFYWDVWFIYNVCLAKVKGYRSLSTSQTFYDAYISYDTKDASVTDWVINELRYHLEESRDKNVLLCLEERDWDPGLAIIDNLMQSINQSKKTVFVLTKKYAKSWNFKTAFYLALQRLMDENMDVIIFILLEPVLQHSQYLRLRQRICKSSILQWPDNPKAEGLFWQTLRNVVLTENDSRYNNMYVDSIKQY
Chain of hERG ion channel (Q12809 whole entry): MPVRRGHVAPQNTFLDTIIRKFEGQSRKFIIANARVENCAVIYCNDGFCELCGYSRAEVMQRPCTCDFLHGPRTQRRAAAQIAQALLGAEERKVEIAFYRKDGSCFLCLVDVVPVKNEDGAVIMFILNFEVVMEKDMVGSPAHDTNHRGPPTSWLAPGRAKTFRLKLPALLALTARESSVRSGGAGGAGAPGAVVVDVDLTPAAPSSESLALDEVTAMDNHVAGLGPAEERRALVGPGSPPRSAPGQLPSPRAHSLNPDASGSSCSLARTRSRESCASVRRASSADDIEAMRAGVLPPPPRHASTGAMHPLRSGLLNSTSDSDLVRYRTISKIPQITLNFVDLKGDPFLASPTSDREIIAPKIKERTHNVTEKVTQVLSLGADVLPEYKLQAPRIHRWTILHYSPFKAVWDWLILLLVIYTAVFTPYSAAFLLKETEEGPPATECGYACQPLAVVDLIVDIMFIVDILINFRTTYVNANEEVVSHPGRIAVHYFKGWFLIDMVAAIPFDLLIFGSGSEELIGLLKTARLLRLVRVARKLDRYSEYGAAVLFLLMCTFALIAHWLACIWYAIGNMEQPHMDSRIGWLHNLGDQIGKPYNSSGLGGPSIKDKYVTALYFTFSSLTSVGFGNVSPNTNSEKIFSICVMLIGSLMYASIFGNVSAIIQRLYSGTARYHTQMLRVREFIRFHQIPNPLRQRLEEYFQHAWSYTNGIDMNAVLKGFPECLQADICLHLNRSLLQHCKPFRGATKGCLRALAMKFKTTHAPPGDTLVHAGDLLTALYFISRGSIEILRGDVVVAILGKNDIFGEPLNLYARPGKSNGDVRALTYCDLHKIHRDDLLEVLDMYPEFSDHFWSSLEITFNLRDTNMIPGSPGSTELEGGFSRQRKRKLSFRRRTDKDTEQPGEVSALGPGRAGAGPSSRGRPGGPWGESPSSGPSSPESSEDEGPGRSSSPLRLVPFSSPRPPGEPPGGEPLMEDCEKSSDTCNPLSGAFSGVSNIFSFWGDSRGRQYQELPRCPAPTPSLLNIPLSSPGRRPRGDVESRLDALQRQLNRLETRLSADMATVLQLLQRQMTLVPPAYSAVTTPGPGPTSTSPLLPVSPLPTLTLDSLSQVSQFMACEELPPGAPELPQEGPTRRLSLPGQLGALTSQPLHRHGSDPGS
Chain of hERG potassium channel (Q12809 whole entry): as above

EC50 [1] [µM] | EC50 [2] [µM] | Structure (SMILES) | IC50 [3] [µM] | IC50 [4] [µM]
0.251 | > 10 | CCC[C@@H](CCO)Nc1nc(N)nc(C)c1Cc1ccc(OCCCN(CC)CCC(=O)O)cc1OC [Example 10, (S)-3-((3-(4-((2-amino-4-(1-hydroxyhexan-3-ylamino)-6-methylpyrimidin-5-yl)methyl)-3-methoxyphenoxy)propyl)(ethyl)amino)propanoic acid] |  | 
0.2 | > 10 | CCC[C@@H](CCO)Nc1nc(N)nc(C)c1Cc1ccc(OCCCN(CC)CC(=O)O)cc1OC [Example 11, (S)-2-((3-(4-((2-amino-4-(1-hydroxyhexan-3-ylamino)-6-methylpyrimidin-5-yl)methyl)-3-methoxyphenoxy)propyl)(ethyl)amino)acetic acid] |  | 
0.2 | > 10 | CCC[C@@H](CCO)Nc1nc(N)nc(C)c1Cc1ccc(OCCCN2CCC[C@H]2C(=O)O)cc1OC [Example 9, (S)-1-(3-(4-((2-amino-4-((S)-1-hydroxyhexan-3-ylamino)-6-methylpyrimidin-5-yl)methyl)-3-methoxyphenoxy)propyl)pyrrolidine-2-carboxylic acid] | > 10 | 
0.0501 | > 10 | CCC[C@@H](CCO)Nc1nc(N)nc(C)c1Cc1ccc(CN(CC)CCC(=O)O)cc1OC [Example 5, (S)-3-((4-((2-amino-4-(1-hydroxyhexan-3-ylamino)-6-methylpyrimidin-5-yl)methyl)-3-methoxybenzyl)(ethyl)amino)propanoic acid] | > 10 | > 33
0.126 | > 10 | CCC[C@@H](CCO)Nc1nc(N)nc(C)c1Cc1ccc(OCCCN2CCC[C@@H]2C(=O)O)cc1OC [Example 8, (R)-1-(3-(4-((2-amino-4-((S)-1-hydroxyhexan-3-ylamino)-6-methylpyrimidin-5-yl)methyl)-3-methoxyphenoxy)propyl)pyrrolidine-2-carboxylic acid] | > 10 | 
0.251 | > 10 | CCC[C@@H](CCO)Nc1nc(N)nc(C)c1Cc1ccc(CN(CC(=O)O)C(C)=O)cc1OC [Example 7, (S)-2-(N-(4-((2-amino-4-(1-hydroxyhexan-3-ylamino)-6-methylpyrimidin-5-yl)methyl)-3-methoxybenzyl)acetamido)acetic acid] | > 10 | 
0.794 | > 10 | CCCCNc1nc(N)nc(C)c1Cc1ccc(CN(CC)CC(=O)O)cc1OC [Example 2, 2-((4-((2-amino-4-(butylamino)-6-methylpyrimidin-5-yl)methyl)-3-methoxybenzyl) (ethyl)amino)acetic acid] | > 10 | 
0.1 | > 10 | CCC[C@@H](CCO)Nc1nc(N)nc(C)c1Cc1ccc(OCCCN(CC(=O)O)CC(F)F)cc1OC [Example 12, (S)-2-((3-(4-((2-amino-4-(l-hydroxyhexan-3-ylamino)-6-methylpyrimidin-5-yl)methyl)-3-methoxyphenoxy)propyl)(2,2-difluoroethyl)amino)acetic acid] |  | 
0.158 | > 10 | CCC[C@@H](CCO)Nc1nc(N)nc(C)c1Cc1ccc(CN(CC)CC(=O)O)cc1OC [Example 1, (S)-2-((4-((2-amino-4-(1-hydroxyhexan-3-ylamino)-6-methylpyrimidin-5-yl)methyl)-3-methoxybenzyl)(ethyl)amino)acetic acid] | > 10 | > 33
0.2 | > 10 | CCC[C@@H](CCO)Nc1nc(N)nc(C)c1Cc1ccc(CN2CCC[C@@H]2C(=O)O)cc1OC [Example 13, (R)-1-(4-((2-amino-4-((S)-1-hydroxyhexan-3-ylamino)-6-methylpyrimidin-5-yl)methyl)-3-methoxybenzyl)pyrrolidine-2-carboxylic acid] |  | 
2 | > 10 | CCC[C@@H](CCO)Nc1nc(N)nc(C)c1Cc1ccc(Cn2cncc2C(=O)O)cc1OC [Example 14, (S)-1-(4-((2-amino-4-(1-hydroxyhexan-3-ylamino)-6-methylpyrimidin-5-yl)methyl)-3-methoxybenzyl)-1H-imidazole-5-carboxylic acid] |  | 

Structure (SMILES) | EC50 [1] [µM] | EC50 [2] [µM] | IC50 [3] [µM] | IC50 [4] [µM]
CCC[C@@H](CCO)Nc1nc(N)nc(C)c1Cc1ccc(CN(CCC(=O)O)CC(F)F)cc1OC [Example 6, (S)-3-((4-((2-amino-4-(1-hydroxyhexan-3-ylamino)-6-methylpyrimidin-5-yl)methyl)-3-methoxybenzyl)(2,2-difluoroethyl)amino)propanoic acid] | 0.251 | > 10 | > 10 | > 33
